Data as given in patent US20160108008A1, “Substituted N-(Tetrazol-5-yl)- and N-(Triazol-5-yl)arylcarboxamide Compounds and Their Use as Herbicides” (BASF SE, priority 2013, published 2016).
Marks after values point to notes of the source that are not given here.

How the values were obtained:
Type in all cases: in vivo
Amaranthus retroflexus [1] = experiment: greenhouse post-emergence treatment, AMARE; conditions: scale 0-100
Source text: (§1) The culture containers used were plastic flowerpots containing loamy sand with approximately 3.0% of humus as the substrate. The seeds of the test plants were sown separately for each species.
(§2) For the post-emergence treatment, the test plants were first grown to a height of 3 to 15 cm, depending on the plant habit, and only then treated with the active ingredients which had been suspended or emulsified in water. For this purpose, the test plants were either sown directly and grown in the same containers, or they were first grown separately as seedlings and transplanted into the test containers a few days prior to treatment.
(§3) Depending on the species, the plants were kept at 10-25° C. or 20-35° C. The test period extended over 2 to 4 weeks. During this time, the plants were tended, and their response to the individual treatments was evaluated.
(§4) Evaluation was carried out using a scale from 0 to 100. 100 means no emergence of the plants, or complete destruction of at least the aerial moieties, and 0 means no damage, or normal course of growth. A good herbicidal activity is given at values of at least 70 and a very good herbicidal activity is given at values of at least 85.
(§5) The plants used in the greenhouse experiments belonged to the following species:
(§6) Following representative compounds of formula I according to Table 9 were used in post-emergence treatments in greenhouse experiments (values labeled with * result from pre-emergence experiments): […]

Chenopodium album = experiment: greenhouse post-emergence treatment, CHEAL; conditions: scale 0-100
Source text: as §1, §2, §3, §4, §5, §6

Echinochloa crus-galli = experiment: greenhouse post-emergence treatment, ECHCG; conditions: scale 0-100
Source text: as §1, §2, §3, §4, §5, §6

Amaranthus retroflexus [2] = experiment: greenhouse pre-emergence treatment, AMARE; conditions: pre-emergence (value labeled *), scale 0-100
Source text: as §1
For the pre-emergence treatment, the active ingredients, which had been suspended or emulsified in water, were applied directly after sowing by means of finely distributing nozzles. The containers were irrigated gently to promote germination and growth and subsequently covered with transparent plastic hoods until the plants had rooted. This cover caused uniform germination of the test plants, unless this has been impaired by the active ingredients.
as §3, §4, §5, §6

CCSc1c(Cl)cc(Cl)c(C(=O)Nc2nnnn2C)c1Cl [compound 41]
[%] damage to weed III (AMARE) (Amaranthus retroflexus [1]; 250 g/ha): 100; % | [%] damage to weed VI (CHEAL) (Chenopodium album; 250 g/ha): 100% | [%] damage to weed VII (ECHCG) (Echinochloa crus-galli; 250 g/ha): 100% | [%] damage to weed III (AMARE) (Amaranthus retroflexus [2]; 250 g/ha): 100* %

COCCn1nnnc1NC(=O)c1c(Cl)cc(Cl)c(SC)c1Cl [compound 75]
[%] damage to weed III (AMARE) (Amaranthus retroflexus [1]; 250 g/ha): 100; % | [%] damage to weed VI (CHEAL) (Chenopodium album; 250 g/ha): 100% | [%] damage to weed VII (ECHCG) (Echinochloa crus-galli; 250 g/ha): 100% | [%] damage to weed III (AMARE) (Amaranthus retroflexus [2]; 250 g/ha): 100* %

COCCn1nnnc1NC(=O)c1c(Cl)ccc(SC)c1Cl [compound 83]
[%] damage to weed III (AMARE) (Amaranthus retroflexus [1]; 250 g/ha): 100; % | [%] damage to weed VI (CHEAL) (Chenopodium album; 250 g/ha): 100% | [%] damage to weed VII (ECHCG) (Echinochloa crus-galli; 250 g/ha): 100% | [%] damage to weed III (AMARE) (Amaranthus retroflexus [2]; 250 g/ha): 100* %

CCS(=O)(=O)c1c(Cl)cc(Cl)c(C(=O)Nc2nnnn2C)c1Cl [compound 73]
[%] damage to weed III (AMARE) (Amaranthus retroflexus [1]; 250 g/ha): 100; % | [%] damage to weed VI (CHEAL) (Chenopodium album; 250 g/ha): 100% | [%] damage to weed VII (ECHCG) (Echinochloa crus-galli; 250 g/ha): 100% | [%] damage to weed III (AMARE) (Amaranthus retroflexus [2]; 250 g/ha): 98* %

CCC[S+]([O-])c1c(Cl)cc(F)c(C(=O)Nc2ncnn2C)c1Cl (stereo not drawn) [compound 27]
[%] damage to weed III (AMARE) (Amaranthus retroflexus [1]; 244 g/ha): 100; % | [%] damage to weed VI (CHEAL) (Chenopodium album; 244 g/ha): 100% | [%] damage to weed VII (ECHCG) (Echinochloa crus-galli; 244 g/ha): 98% | [%] damage to weed III (AMARE) (Amaranthus retroflexus [2]; 244 g/ha): 85* %

CC[S+]([O-])c1c(Cl)cc(F)c(C(=O)Nc2nnnn2CCOC)c1Cl (stereo not drawn) [compound 77]
[%] damage to weed III (AMARE) (Amaranthus retroflexus [1]; 125 g/ha): 100; % | [%] damage to weed VI (CHEAL) (Chenopodium album; 125 g/ha): 100% | [%] damage to weed VII (ECHCG) (Echinochloa crus-galli; 125 g/ha): 100% | [%] damage to weed III (AMARE) (Amaranthus retroflexus [2]; 125 g/ha): 100* %

CCSc1ccc(Cl)c(C(=O)Nc2ncnn2C)c1Cl [compound 87]
[%] damage to weed III (AMARE) (Amaranthus retroflexus [1]; 250 g/ha): 100; % | [%] damage to weed VI (CHEAL) (Chenopodium album; 250 g/ha): 100% | [%] damage to weed VII (ECHCG) (Echinochloa crus-galli; 250 g/ha): 98% | [%] damage to weed III (AMARE) (Amaranthus retroflexus [2]; 250 g/ha): 98* %

CSc1ccc(Cl)c(C(=O)Nc2nnnn2C)c1Cl [compound 82]
[%] damage to weed III (AMARE) (Amaranthus retroflexus [1]; 250 g/ha): 100; % | [%] damage to weed VI (CHEAL) (Chenopodium album; 250 g/ha): 100% | [%] damage to weed VII (ECHCG) (Echinochloa crus-galli; 250 g/ha): 98% | [%] damage to weed III (AMARE) (Amaranthus retroflexus [2]; 250 g/ha): 100* %

CCSc1c(Cl)cc(F)c(C(=O)Nc2nnnn2CCOC)c1Cl [compound 79]
[%] damage to weed III (AMARE) (Amaranthus retroflexus [1]; 250 g/ha): 100; % | [%] damage to weed VI (CHEAL) (Chenopodium album; 250 g/ha): 100% | [%] damage to weed VII (ECHCG) (Echinochloa crus-galli; 250 g/ha): 100% | [%] damage to weed III (AMARE) (Amaranthus retroflexus [2]; 250 g/ha): 100* %

CCn1nnnc1NC(=O)c1c(F)cc(Cl)c(OCCC(F)(F)F)c1Cl [compound 92, 2,4-Dichloro-N-(1-ethyltetrazol-5-yl)-6-fluoro-3-(3,3,3-trifluoropropoxy)benzamide]
[%] damage to weed III (AMARE) (Amaranthus retroflexus [1]; 250 g/ha): 100; % | [%] damage to weed VI (CHEAL) (Chenopodium album; 250 g/ha): 100% | [%] damage to weed VII (ECHCG) (Echinochloa crus-galli; 250 g/ha): 100% | [%] damage to weed III (AMARE) (Amaranthus retroflexus [2]; 250 g/ha): 100* %

CSc1c(F)cc(Cl)c(C(=O)Nc2nnnn2C)c1F [compound 95]
[%] damage to weed III (AMARE) (Amaranthus retroflexus [1]; 250 g/ha): 100; % | [%] damage to weed VI (CHEAL) (Chenopodium album; 250 g/ha): 100% | [%] damage to weed VII (ECHCG) (Echinochloa crus-galli; 250 g/ha): 100% | [%] damage to weed III (AMARE) (Amaranthus retroflexus [2]; 250 g/ha): 95* %

Cn1nnnc1NC(=O)c1c(F)cc(Cl)c(OCCC(F)(F)F)c1Cl [compound 91, 2,4-Dichloro-6-fluoro-N-(1-methyltetrazol-5-yl)-3-(3,3,3-trifluoropropoxy)benzamide]
[%] damage to weed III (AMARE) (Amaranthus retroflexus [1]; 250 g/ha): 100; % | [%] damage to weed VI (CHEAL) (Chenopodium album; 250 g/ha): 100% | [%] damage to weed VII (ECHCG) (Echinochloa crus-galli; 250 g/ha): 100% | [%] damage to weed III (AMARE) (Amaranthus retroflexus [2]; 250 g/ha): 100* %

CCSc1ccc(Cl)c(C(=O)Nc2nnnn2C)c1Cl [compound 88]
[%] damage to weed VI (CHEAL) (Chenopodium album; 250 g/ha): 100% | [%] damage to weed VII (ECHCG) (Echinochloa crus-galli; 250 g/ha): 100%

CCC[S+]([O-])c1c(Cl)cc(F)c(C(=O)Nc2nnnn2C)c1Cl (stereo not drawn) [compound 23]
[%] damage to weed III (AMARE) (Amaranthus retroflexus [1]; 250 g/ha): 100; % | [%] damage to weed VI (CHEAL) (Chenopodium album; 250 g/ha): 100% | [%] damage to weed VII (ECHCG) (Echinochloa crus-galli; 250 g/ha): 98% | [%] damage to weed III (AMARE) (Amaranthus retroflexus [2]; 250 g/ha): 98* %

COCCn1nnnc1NC(=O)c1c(F)cc(Cl)c(OCCC(F)(F)F)c1Cl [compound 89, 2,4-Dichloro-6-fluoro-N-[1-(2-methoxyethyl)tetrazol-5-yl]-3-(3,3,3-trifluoropropoxy)-benzamide]
[%] damage to weed III (AMARE) (Amaranthus retroflexus [1]; 250 g/ha): 100; % | [%] damage to weed VI (CHEAL) (Chenopodium album; 250 g/ha): 100% | [%] damage to weed VII (ECHCG) (Echinochloa crus-galli; 250 g/ha): 100% | [%] damage to weed III (AMARE) (Amaranthus retroflexus [2]; 250 g/ha): 100* %

CCSc1c(Cl)cc(F)c(C(=O)Nc2nnnn2CC)c1Cl [compound 64]
[%] damage to weed III (AMARE) (Amaranthus retroflexus [1]; 500 g/ha): 100; % | [%] damage to weed VI (CHEAL) (Chenopodium album; 500 g/ha): 100% | [%] damage to weed VII (ECHCG) (Echinochloa crus-galli; 500 g/ha): 100% | [%] damage to weed III (AMARE) (Amaranthus retroflexus [2]; 500 g/ha): 100* %

CC[S+]([O-])c1c(Cl)cc(Cl)c(C(=O)Nc2nnnn2C)c1Cl (stereo not drawn) [compound 60]
[%] damage to weed III (AMARE) (Amaranthus retroflexus [1]; 500 g/ha): 100; % | [%] damage to weed VI (CHEAL) (Chenopodium album; 500 g/ha): 100% | [%] damage to weed VII (ECHCG) (Echinochloa crus-galli; 500 g/ha): 98% | [%] damage to weed III (AMARE) (Amaranthus retroflexus [2]; 500 g/ha): 100* %

COCCOc1c(Cl)cc(F)c(C(=O)Nc2nnnn2CCOC)c1Cl [compound 68]
[%] damage to weed III (AMARE) (Amaranthus retroflexus [1]; 250 g/ha): 100; % | [%] damage to weed VI (CHEAL) (Chenopodium album; 250 g/ha): 100% | [%] damage to weed VII (ECHCG) (Echinochloa crus-galli; 250 g/ha): 100% | [%] damage to weed III (AMARE) (Amaranthus retroflexus [2]; 250 g/ha): 100* %

CCn1nnnc1NC(=O)c1c(F)cc(Cl)c([S+](C)[O-])c1Cl (stereo not drawn) [compound 32]
[%] damage to weed III (AMARE) (Amaranthus retroflexus [1]; 250 g/ha): 100; % | [%] damage to weed VI (CHEAL) (Chenopodium album; 250 g/ha): 100% | [%] damage to weed VII (ECHCG) (Echinochloa crus-galli; 250 g/ha): 100% | [%] damage to weed III (AMARE) (Amaranthus retroflexus [2]; 250 g/ha): 100* %

Cn1ncnc1NC(=O)c1c(F)cc(Cl)c(OCCC(F)(F)F)c1Cl [compound 90, 2,4-Dichloro-6-fluoro-N-(2-methyl-1,2,4-triazol-3-yl)-3-(3,3,3-trifluoropropoxy)benzamide]
[%] damage to weed VI (CHEAL) (Chenopodium album; 250 g/ha): 100% | [%] damage to weed VII (ECHCG) (Echinochloa crus-galli; 250 g/ha): 90%

CCCS(=O)(=O)c1c(Cl)cc(F)c(C(=O)Nc2nnnn2C)c1Cl [compound 24]
[%] damage to weed III (AMARE) (Amaranthus retroflexus [1]; 250 g/ha): 100; % | [%] damage to weed VI (CHEAL) (Chenopodium album; 250 g/ha): 100% | [%] damage to weed VII (ECHCG) (Echinochloa crus-galli; 250 g/ha): 100% | [%] damage to weed III (AMARE) (Amaranthus retroflexus [2]; 250 g/ha): 100* %

COCCOc1ccc(Cl)c(C(=O)Nc2ncnn2C)c1Cl [compound 85]
[%] damage to weed III (AMARE) (Amaranthus retroflexus [1]; 250 g/ha): 100% | [%] damage to weed VI (CHEAL) (Chenopodium album; 250 g/ha): 100% | [%] damage to weed VII (ECHCG) (Echinochloa crus-galli; 250 g/ha): 85%

CCCS(=O)(=O)c1c(Cl)cc(F)c(C(=O)Nc2ncnn2C)c1Cl [compound 26]
[%] damage to weed III (AMARE) (Amaranthus retroflexus [1]; 500 g/ha): 100; % | [%] damage to weed VI (CHEAL) (Chenopodium album; 500 g/ha): 100% | [%] damage to weed VII (ECHCG) (Echinochloa crus-galli; 500 g/ha): 98% | [%] damage to weed III (AMARE) (Amaranthus retroflexus [2]; 500 g/ha): 98* %

Cn1ncnc1NC(=O)c1c(F)cc(Cl)c([S+](C)[O-])c1Cl (stereo not drawn) [cpd. 5]
[%] damage to weed III (AMARE) (Amaranthus retroflexus [1]; 250 g/ha): 100% | [%] damage to weed VI (CHEAL) (Chenopodium album; 250 g/ha): 100% | [%] damage to weed VII (ECHCG) (Echinochloa crus-galli; 250 g/ha): 98%
